Assays:
Experiment in all cases: Bliss excess, mean over the matrix (fraction); higher = more synergy
[1] = system: NAMALWA (Burkitt's Lymphoma)
Outline: (§1)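 Cell lines grown in DMEM/F12 or RPMI with 10% FBS were plated in 1536-well plates and held 24 hours at 37°C, 5% CO2 before 72 hours of exposure to two-drug dose matrices, with DMSO typically at 0.2%. CellTiter-Glo 2.0 luminescence gave viability, which was converted to inhibition. Vehicle wells were set to 0 and blank wells to 1. Combination Emax is the second-highest inhibition in the matrix, and Bliss excess is the observed combination effect minus the expected EA + EB − EA·EB, where EA and EB are the single-agent effects.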

[2] = system: ZR-75-30 (Breast Carcinoma)
Outline: as §1

[3] = system: ES6 (Ewing's Sarcoma)
Outline: as §1

[4] = system: SCC-4 (Oral Cavity Carcinoma)
Outline: as §1

[5] = system: SK-N-SH (Neuroblastoma)
Outline: as §1

[6] = system: NCI-H226 (Mesothelioma)
Outline: as §1

[7] = system: T84 (Colorectal Carcinoma)
Outline: as §1

[8] = system: SKG-IIIa (Cervical Carcinoma)
Outline: as §1

[9] = system: LS-1034 (Colorectal Carcinoma)
Outline: as §1

[10] = system: SNU-423 (Hepatocellular Carcinoma)
Outline: as §1

[11] = system: MDA-MB-415 (Breast Carcinoma)
Outline: as §1

[12] = system: C-33-A (Cervical Carcinoma)
Outline: as §1

[13] = system: GAK (Melanoma)
Outline: as §1

[14] = system: IST-MEL1 (Melanoma)
Outline: as §1

[15] = system: NCI-H3118 (Head and Neck Carcinoma)
Outline: as §1

[16] = system: KALS-1 (Glioblastoma)
Outline: as §1

[17] = system: RCC-JW (Kidney Carcinoma)
Outline: as §1

[18] = system: BxPC-3 (Pancreatic Carcinoma)
Outline: as §1

[19] = system: IA-LM (Non-Small Cell Lung Carcinoma)
Outline: as §1

[20] = system: MS-1 (Small Cell Lung Carcinoma)
Outline: as §1

SMILES	Bliss excess [1]	Bliss excess [2]	Bliss excess [3]	Bliss excess [4]	Bliss excess [5]	Bliss excess [6]	Bliss excess [7]	Bliss excess [8]	Bliss excess [9]	Bliss excess [10]	Bliss excess [11]	Bliss excess [12]	Bliss excess [13]	Bliss excess [14]	Bliss excess [15]	Bliss excess [16]	Bliss excess [17]	Bliss excess [18]	Bliss excess [19]	Bliss excess [20]
C[C@@H](Nc1cc(F)cc(F)c1)c1cc(C(=O)N(C)C)cc2c(=O)cc(N3CCOCC3)oc12 [AZD8186] + CC(=O)c1c(C)c2cnc(Nc3ccc(N4CCNCC4)cn3)nc2n(C2CCCC2)c1=O [Palbociclib] (first compound max 10 µM, 7x7, partner max 10 µM)	0.0544	-0.0465	-0.0155	0.0328	0.0108	-0.0662	-0.0468	-0.0661	0.0015	0.0188	-0.0443	-0.0435	0.0192	0.165	0.0284	0.0114	0.0622	-0.0127	0.0122	-0.0484
C[C@@H](Oc1cc(-c2cnn(C3CCNCC3)c2)cnc1N)c1c(Cl)ccc(F)c1Cl [Crizotinib] + CC1=C(C(=CC=C1)Cl)NC(=O)C2=CN=C(S2)NC3=CC(=NC(=N3)C)N4CCN(CC4)CCO [Dasatinib] (first compound max 10 µM, 7x7, partner max 2 µM)	0.0586	-0.0431	-0.0119	0.0487	0.0049	-0.0295	0.0051	0.0166	-0.0512	-0.0038	-0.0332	-0.02	-0.0786	0.0781	0.0187	0.0652	-0.065	0.035	-0.0154	-0.118
C[C@@H](Oc1cc(-c2cnn(C3CCNCC3)c2)cnc1N)c1c(Cl)ccc(F)c1Cl [Crizotinib] + Cn1cnc2c(F)c(Nc3ccc(Br)cc3Cl)c(C(=O)NOCCO)cc21 [Selumetinib] (first compound max 10 µM, 7x7, partner max 10 µM)	-0.0259	-0.0416	-0.0552	-0.0514	-0.0546	-0.0387	-0.0143	-0.0048	-0.0843	-0.0459	-0.0114	-0.0274	-0.0473	0.0273	-0.0222	-0.005	-0.0432	-0.0323	-0.0463	-0.0926
CS(=O)(=O)CCNCc1ccc(-c2ccc3ncnc(Nc4ccc(OCc5cccc(F)c5)c(Cl)c4)c3c2)o1 [Lapatinib] + Cn1cnc2c(F)c(Nc3ccc(Br)cc3Cl)c(C(=O)NOCCO)cc21 [Selumetinib] (first compound max 10 µM, 7x7, partner max 10 µM)	-0.0003	-0.0329	-0.0159	0.0318	-0.0123	-0.0542	0.058	0.001	-0.0089	-0.0083	-0.0575	0.0282	-0.0769	0.0279	0.0206	0.0025	-0.0525	0.0703	-0.0659	-0.0277
CS(=O)(=O)CCNCc1ccc(-c2ccc3ncnc(Nc4ccc(OCc5cccc(F)c5)c(Cl)c4)c3c2)o1 [Lapatinib] + NC1(c2ccc(-c3nc4ccn5c(=O)[nH]nc5c4cc3-c3ccccc3)cc2)CCC1 [MK-2206] (first compound max 10 µM, 7x7, partner max 10 µM)	0.0388	-0.0604	-0.0408	0.0365	-0.0194	-0.0287	0.0453	0.0359	0.0301	0.0232	0.0306	0.0295	0.0347	0.0095	0.0618	-0.004	-0.0285	0.0263	-0.0179	0.0368
O=C(c1cc(Cc2n[nH]c(=O)c3ccccc23)ccc1F)N1CCN(C(=O)C2CC2)CC1 [Olaparib] + CC1(C)CCC(CN2CCN(c3ccc(C(=O)NS(=O)(=O)c4ccc(NCC5CCOCC5)c([N+](=O)[O-])c4)c(Oc4cnc5[nH]ccc5c4)c3)CC2)=C(c2ccc(Cl)cc2)C1 [Venetoclax] (first compound max 10 µM, 7x7, partner max 1 µM)	0.0044	-0.0247	-0.0549	-0.0455	0.0412	-0.0428	-0.0524	-0.0695	-0.0413	-0.0472	-0.064	-0.0389	-0.048	0.0186	-0.028	-0.0353	-0.045	-0.0569	-0.0339	-0.0266
O=C(c1cc(Cc2n[nH]c(=O)c3ccccc23)ccc1F)N1CCN(C(=O)C2CC2)CC1 [Olaparib] + CN(CC[C@H](CSC1=CC=CC=C1)NC2=C(C=C(C=C2)S(=O)(=O)NC(=O)C3=CC=C(C=C3)N4CCC(CC4)[C@H](C5=CC=CC=C5C6=CC=C(C=C6)Cl)O)S(=O)(=O)C(F)(F)F)CCO [AZD4320] (first compound max 10 µM, 7x7, partner max 1 µM)	-0.0236	-0.0327	-0.0216	-0.0161	0.0025	-0.047	-0.0441	-0.0526	-0.0388	-0.0182	-0.0718	0.0014	-0.0104	-0.0373	-0.0182	-0.0432	-0.0532	-0.0424	0.0167	0.0013
O=C(c1cc(Cc2n[nH]c(=O)c3ccccc23)ccc1F)N1CCN(C(=O)C2CC2)CC1 [Olaparib] + COc1nnc2ccc(N3CCC(c4ccc(OCCN5CCN(C)C(=O)[C@H]5C)cc4)CC3)nn12 [AZD5153] (first compound max 10 µM, 7x7, partner max 1 µM)	-0.0519	-0.0502	-0.0941	-0.0472	-0.0402	-0.0749	-0.0698	-0.0383	-0.0339	-0.0546	-0.0222	-0.0461	-0.0642	-0.045	-0.0669	-0.0141	-0.143	-0.106	-0.153	-0.0426
O=C(c1cc(Cc2n[nH]c(=O)c3ccccc23)ccc1F)N1CCN(C(=O)C2CC2)CC1 [Olaparib] + Cc1c2c(nn1C)CSCc1cc(n(C)n1)CSc1cc(c3ccccc3c1)OCCCc1c(C(=O)O)n(C)c3c-2c(Cl)ccc13 [AZD5991] (first compound max 10 µM, 7x7, partner max 1 µM)	-0.0026	-0.0227	-0.0431	-0.0491	-0.0445	-0.0583	-0.0266	-0.0562	-0.0414	-0.0503	-0.0838	-0.0224	-0.0516	-0.0488	-0.006	-0.0158	-0.0125	-0.066	-0.063	-0.0481
N#Cc1cnc(Nc2cc(NC[C@H]3CNCCO3)c(C(F)(F)F)cn2)cn1 [SRA737] + C=CCn1c(=O)c2cnc(Nc3ccc(N4CCN(C)CC4)cc3)nc2n1-c1cccc(C(C)(C)O)n1 [AZD1775] (first compound max 10 µM, partner max 1 µM)	0.0724	-0.0093	0.0022	0.0374	0.0281	-0.0457	0.0022	-0.031	0.142	0.0786	0.0133	0.0919	0.0525	0.046	0.0583	0.0439	-0.002	0.0061	0.0224	0.078
N#Cc1cnc(Nc2cc(NC[C@H]3CNCCO3)c(C(F)(F)F)cn2)cn1 [SRA737] + O=c1[nH]cc(F)c(=O)[nH]1 [5-Fluorouracil] (first compound max 10 µM, 7x7, partner max 20 µM)	0.0157	-0.0283	-0.0508	0.0952	-0.0499	-0.0281	0.0458	0.0284	0.0936	0.0005	0.057	0.0006	-0.012	-0.0223	0.0141	0.0085	-0.0355	-0.0019	-0.0622	-0.0821
Cc1nc(-c2cn3c(n2)-c2ccc(-c4cnn(C(C)(C)C(N)=O)c4)cc2OCC3)n(C(C)C)n1 [Taselisib] + O=C(Nc1ccc2[nH]nc(-c3ccncc3)c2c1)[C@@H]1CCN(CC(=O)N2CCN(c3ccc(-c4ncccn4)cc3)CC2)C1 [SCH772984] (first compound max 10 µM, 7x7, partner max 5 µM)	0.0894	0.0556	-0.0318	0.0899	0.0498	0.0164	0.072	0.0751	0.0307	0.0656	-0.0012	0.0551	0.0592	0.106	0.0633	-0.0253	-0.0167	0.133	-0.0058	0.0145
CC1(C)CCC(CN2CCN(c3ccc(C(=O)NS(=O)(=O)c4ccc(NCC5CCOCC5)c([N+](=O)[O-])c4)c(Oc4cnc5[nH]ccc5c4)c3)CC2)=C(c2ccc(Cl)cc2)C1 [Venetoclax] + CS(=O)(=O)CCNCc1ccc(-c2ccc3ncnc(Nc4ccc(OCc5cccc(F)c5)c(Cl)c4)c3c2)o1 [Lapatinib] (first compound max 1 µM, 7x7, partner max 10 µM)	-0.0072	0.0215	-0.0675	-0.0231	0.008	-0.0355	-0.0151	-0.0674	-0.0412	-0.0254	-0.047	-0.0001	0.0293	-0.0234	-0.014	-0.0431	-0.0229	-0.0299	-0.0665	-0.0021

Source: the supplement of paper PMC11061612
